Results: ChEMBL document CHEMBL6153157, “Novel 3-Aminothieno[2,3-b]pyridine-2-carboxamides with Activity against Mycobacterium tuberculosis” (ACS Med Chem Lett, 2025)

Experiments:
[1] = tested on: Mycobacterium tuberculosis; assay: Antibacterial activity against wild type Mycobacterium tuberculosis H37Rv-LP DREAM8 strain expressing codon-optimized DsRed assessed growth inhibition incubated for 5 days by fluorescence spectrophotometric assay; assay type: functional; conditions: H37Rv-LP DREAM8, 120 h, time 5 day
[2] = tested on: Mycobacterium tuberculosis; assay: Antibacterial activity against Mycobacterium tuberculosis LepB-UE strain under expressing signal peptidase LepB assessed growth inhibition incubated for 5 days by fluorescence spectrophotometric assay; assay type: functional; conditions: 120 h, time 5 day
[3] = Cytotoxicity against human HepG2 cells assessed as cell growth inhibition incubated for 3 days by CellTiter-Glo reagent-based luminescence assay; assay type: toxicity
[4] = Selectivity index, ratio of IC50 for cytotoxicity against human HepG2 cells to IC90 for antibacterial activity against wild type Mycobacterium tuberculosis H37Rv-LP DREAM8 strain expressing codon-optimized DsRed; assay type: toxicity, cell-based

SMILES | IC90 [1] | IC90 [2] | IC50 at 3 days [3] | selectivity ratio [4]
COc1ccc(-c2cc(C(F)(F)F)c3c(N)c(C(=O)NC(C)c4ccccc4)sc3n2)cn1 (stereo not given) | 1.2 µM | 0.41 µM | 19 µM | 
COc1ccc(-c2cc(C(F)(F)F)c3c(N)c(C(=O)NCc4ccccc4)sc3n2)cc1 | > 100 µM |  | 88 µM | < 1
COc1ccc(-c2cc(C(F)(F)F)c3c(N)c(C(=O)N4CC(C)OC(C)C4)sc3n2)cc1 (stereo not given) | > 50 µM |  | 44 µM | < 1
COc1ccc(-c2cc(C(F)(F)F)c3c(N)c(C(=O)NCCc4ccccc4)sc3n2)cc1 | > 100 µM |  | 23 µM | < 1
COc1ccc(-c2cc(C(F)(F)F)c3c(N)c(C(=O)Nc4ccc(C)c(C)c4)sc3n2)cc1 | > 100 µM |  | 79 µM | < 1
